# In ChEMBL document CHEMBL4507302, “Data for DCP probe TP-020” (2021):
# Columns and labels:
# [1] = target: Tyrosine-protein kinase Tec (Homo sapiens) (UniProt P42680); conditions: Compound concentration 1000.0 nM
# [2] = target: Ribosomal protein S6 kinase beta-1 (Homo sapiens) (UniProt P23443); conditions: Compound concentration 1000.0 nM
# [3] = target: Casein kinase I isoform alpha-like (Homo sapiens) (UniProt Q8N752); conditions: Compound concentration 1000.0 nM
# [4] = target: Interleukin-1 receptor-associated kinase 1 (Homo sapiens) (UniProt P51617); conditions: Compound concentration 1000.0 nM
# [5] = target: Cyclin-dependent kinase 2 (Homo sapiens) (UniProt P24941); conditions: Compound concentration 1000.0 nM
# [6] = target: Vascular endothelial growth factor receptor 2 (Homo sapiens) (UniProt P35968); conditions: Compound concentration 1000.0 nM
# [7] = test system: Tyrosine-protein kinase ABL1 (Homo sapiens), P00519 [F317I]; conditions: Compound concentration 1000.0 nM
# [8] = target: Ribosomal protein S6 kinase alpha-6 (Homo sapiens) (UniProt Q9UK32); conditions: Compound concentration 1000.0 nM
# [9] = test system: Receptor-type tyrosine-protein kinase FLT3 (Homo sapiens), P36888 [K663Q]; conditions: Compound concentration 1000.0 nM
# [10] = target: Phosphatidylinositol 4,5-bisphosphate 3-kinase catalytic subunit delta isoform (Homo sapiens) (UniProt O00329); conditions: Compound concentration 1000.0 nM
# [11] = target: Dual specificity tyrosine-phosphorylation-regulated kinase 1B (Homo sapiens) (UniProt Q9Y463); conditions: Compound concentration 1000.0 nM
# [12] = target: Serine/threonine-protein kinase SBK1 (Homo sapiens) (UniProt Q52WX2); conditions: Compound concentration 1000.0 nM
# [13] = target: Dual specificity mitogen-activated protein kinase kinase 3 (Homo sapiens) (UniProt P46734); conditions: Compound concentration 1000.0 nM
# [14] = target: Calcium/calmodulin-dependent protein kinase type IV (Homo sapiens) (UniProt Q16566); conditions: Compound concentration 1000.0 nM
# [15] = target: Activin receptor type-2B (Homo sapiens) (UniProt Q13705); conditions: Compound concentration 1000.0 nM
# [16] = target: Mitogen-activated protein kinase kinase kinase 7 (Homo sapiens) (UniProt O43318); conditions: Compound concentration 1000.0 nM
# [17] = target: Mitogen-activated protein kinase kinase kinase 20 (Homo sapiens) (UniProt Q9NYL2); conditions: Compound concentration 1000.0 nM
# [18] = target: Myosin-IIIa (Homo sapiens) (UniProt Q8NEV4); conditions: Compound concentration 1000.0 nM
# [19] = target: Serine/threonine-protein kinase tousled-like 1 (Homo sapiens) (UniProt Q9UKI8); conditions: Compound concentration 1000.0 nM
# [20] = target: Serine/threonine-protein kinase Nek1 (Homo sapiens) (UniProt Q96PY6); conditions: Compound concentration 1000.0 nM
# [21] = target: Serine/threonine-protein kinase 17A (Homo sapiens) (UniProt Q9UEE5); conditions: Compound concentration 1000.0 nM
# [22] = target: 5-hydroxytryptamine receptor 2A (Homo sapiens) (UniProt P28223); conditions: Compound concentration 10.0 uM
# [23] = target: Myosin light chain kinase (Homo sapiens) (UniProt Q32MK0); conditions: Compound concentration 1000.0 nM
# [24] = target: Tyrosine-protein kinase ABL2 (Homo sapiens) (UniProt P42684); conditions: Compound concentration 1000.0 nM
# [25] = target: cAMP-dependent protein kinase catalytic subunit alpha (Homo sapiens) (UniProt P17612); conditions: Compound concentration 1000.0 nM
# [26] = target: 5-hydroxytryptamine receptor 7 (Homo sapiens) (UniProt P34969); conditions: Compound concentration 10.0 uM
# [27] = target: Epithelial discoidin domain-containing receptor 1 (Homo sapiens) (UniProt Q08345); conditions: Compound concentration 1000.0 nM
# [28] = target: LIM domain kinase 1 (Homo sapiens) (UniProt P53667); conditions: Compound concentration 1000.0 nM
# [29] = test system: Tyrosine-protein kinase ABL1 (Homo sapiens), P00519 [F317L]; conditions: Compound concentration 1000.0 nM
# [30] = target: Serine/threonine-protein kinase Nek2 (Homo sapiens) (UniProt P51955); conditions: Compound concentration 1000.0 nM
# [31] = target: Serine/threonine-protein kinase TAO2 (Homo sapiens) (UniProt Q9UL54); conditions: Compound concentration 1000.0 nM
# [32] = target: Dual specificity mitogen-activated protein kinase kinase 6 (Homo sapiens) (UniProt P52564); conditions: Compound concentration 1000.0 nM
# [33] = target: SRSF protein kinase 1 (Homo sapiens) (UniProt Q96SB4); conditions: Compound concentration 1000.0 nM
# [34] = target: Leukocyte tyrosine kinase receptor (Homo sapiens) (UniProt P29376); conditions: Compound concentration 1000.0 nM
# [35] = target: Serine/threonine-protein kinase pim-2 (Homo sapiens) (UniProt Q9P1W9); conditions: Compound concentration 1000.0 nM
# [36] = target: Serine/threonine-protein kinase TNNI3K (Homo sapiens) (UniProt Q59H18); conditions: Compound concentration 1000.0 nM
# [37] = target: STE20/SPS1-related proline-alanine-rich protein kinase (Homo sapiens) (UniProt Q9UEW8); conditions: Compound concentration 1000.0 nM
# [38] = target: Protein kinase C delta type (Homo sapiens) (UniProt Q05655); conditions: Compound concentration 1000.0 nM
# [39] = target: Bone morphogenetic protein receptor type-1B (Homo sapiens) (UniProt O00238); conditions: Compound concentration 1000.0 nM
# [40] = target: Mitogen-activated protein kinase kinase kinase kinase 4 (Homo sapiens) (UniProt O95819); conditions: Compound concentration 1000.0 nM
# [41] = target: Aurora kinase B (Homo sapiens) (UniProt Q96GD4); conditions: Compound concentration 1000.0 nM
# [42] = test system: Tyrosine-protein kinase ABL1 (Homo sapiens), P00519 [M351T]; conditions: Compound concentration 1000.0 nM
# [43] = test system: Phosphatidylinositol 4,5-bisphosphate 3-kinase catalytic subunit alpha isoform (Homo sapiens), P42336 [E545A]; conditions: Compound concentration 1000.0 nM
# [44] = target: Tyrosine-protein kinase Blk (Homo sapiens) (UniProt P51451); conditions: Compound concentration 1000.0 nM
# [45] = target: Serine/threonine-protein kinase B-raf (Homo sapiens) (UniProt P15056); conditions: Compound concentration 1000.0 nM
# Myosin-IIIa (Homo sapiens), sequence (Q8NEV4 whole entry): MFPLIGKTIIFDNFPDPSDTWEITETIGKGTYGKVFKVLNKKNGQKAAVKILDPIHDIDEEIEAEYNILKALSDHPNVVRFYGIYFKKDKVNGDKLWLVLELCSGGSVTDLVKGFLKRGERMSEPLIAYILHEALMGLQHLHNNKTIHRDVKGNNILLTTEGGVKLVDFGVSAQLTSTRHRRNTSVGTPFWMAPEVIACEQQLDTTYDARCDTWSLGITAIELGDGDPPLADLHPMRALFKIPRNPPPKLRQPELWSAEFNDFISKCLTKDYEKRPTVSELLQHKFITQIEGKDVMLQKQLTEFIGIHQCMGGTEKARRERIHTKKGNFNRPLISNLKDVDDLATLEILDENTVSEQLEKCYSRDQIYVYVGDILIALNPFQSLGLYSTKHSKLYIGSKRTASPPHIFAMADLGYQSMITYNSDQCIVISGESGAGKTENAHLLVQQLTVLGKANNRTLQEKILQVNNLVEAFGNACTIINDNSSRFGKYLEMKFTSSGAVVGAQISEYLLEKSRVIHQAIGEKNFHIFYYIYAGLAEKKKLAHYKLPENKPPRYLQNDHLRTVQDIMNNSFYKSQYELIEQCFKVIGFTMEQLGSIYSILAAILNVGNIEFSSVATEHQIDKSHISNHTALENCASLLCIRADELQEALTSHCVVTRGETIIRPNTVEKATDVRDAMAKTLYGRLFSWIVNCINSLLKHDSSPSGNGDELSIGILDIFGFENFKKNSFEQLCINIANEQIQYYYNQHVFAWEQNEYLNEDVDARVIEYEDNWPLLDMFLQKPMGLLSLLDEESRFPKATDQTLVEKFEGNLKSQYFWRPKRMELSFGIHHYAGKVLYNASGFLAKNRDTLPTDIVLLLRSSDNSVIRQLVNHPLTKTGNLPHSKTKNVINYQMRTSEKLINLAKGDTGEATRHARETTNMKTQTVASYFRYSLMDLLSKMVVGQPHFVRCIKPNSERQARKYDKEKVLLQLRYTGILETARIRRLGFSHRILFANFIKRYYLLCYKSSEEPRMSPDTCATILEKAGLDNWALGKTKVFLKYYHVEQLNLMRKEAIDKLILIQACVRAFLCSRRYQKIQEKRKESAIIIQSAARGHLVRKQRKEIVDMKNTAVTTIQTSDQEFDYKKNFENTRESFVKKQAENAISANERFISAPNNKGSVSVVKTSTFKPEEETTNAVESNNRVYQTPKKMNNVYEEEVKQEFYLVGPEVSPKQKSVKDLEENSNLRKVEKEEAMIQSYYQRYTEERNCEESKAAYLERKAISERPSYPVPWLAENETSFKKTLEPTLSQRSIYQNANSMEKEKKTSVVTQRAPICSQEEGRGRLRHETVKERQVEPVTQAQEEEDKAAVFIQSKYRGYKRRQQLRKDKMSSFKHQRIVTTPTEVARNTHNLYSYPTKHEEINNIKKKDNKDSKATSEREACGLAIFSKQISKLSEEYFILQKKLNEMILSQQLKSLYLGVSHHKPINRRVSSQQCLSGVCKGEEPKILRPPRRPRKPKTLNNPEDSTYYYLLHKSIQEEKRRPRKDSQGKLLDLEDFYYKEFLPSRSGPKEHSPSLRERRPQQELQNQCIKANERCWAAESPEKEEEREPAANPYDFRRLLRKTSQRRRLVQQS
# Dual specificity mitogen-activated protein kinase kinase 6 (Homo sapiens), sequence (P52564 whole entry): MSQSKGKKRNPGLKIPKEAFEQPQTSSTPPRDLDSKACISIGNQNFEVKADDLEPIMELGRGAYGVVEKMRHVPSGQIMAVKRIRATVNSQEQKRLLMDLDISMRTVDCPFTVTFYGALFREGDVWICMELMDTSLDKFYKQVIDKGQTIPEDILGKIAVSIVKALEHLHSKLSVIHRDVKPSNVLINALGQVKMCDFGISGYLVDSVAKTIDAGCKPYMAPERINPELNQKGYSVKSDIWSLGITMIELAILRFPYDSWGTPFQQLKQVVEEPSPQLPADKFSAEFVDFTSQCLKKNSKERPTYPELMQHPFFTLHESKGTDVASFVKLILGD
# Myosin light chain kinase (Homo sapiens), sequence (Q32MK0 whole entry): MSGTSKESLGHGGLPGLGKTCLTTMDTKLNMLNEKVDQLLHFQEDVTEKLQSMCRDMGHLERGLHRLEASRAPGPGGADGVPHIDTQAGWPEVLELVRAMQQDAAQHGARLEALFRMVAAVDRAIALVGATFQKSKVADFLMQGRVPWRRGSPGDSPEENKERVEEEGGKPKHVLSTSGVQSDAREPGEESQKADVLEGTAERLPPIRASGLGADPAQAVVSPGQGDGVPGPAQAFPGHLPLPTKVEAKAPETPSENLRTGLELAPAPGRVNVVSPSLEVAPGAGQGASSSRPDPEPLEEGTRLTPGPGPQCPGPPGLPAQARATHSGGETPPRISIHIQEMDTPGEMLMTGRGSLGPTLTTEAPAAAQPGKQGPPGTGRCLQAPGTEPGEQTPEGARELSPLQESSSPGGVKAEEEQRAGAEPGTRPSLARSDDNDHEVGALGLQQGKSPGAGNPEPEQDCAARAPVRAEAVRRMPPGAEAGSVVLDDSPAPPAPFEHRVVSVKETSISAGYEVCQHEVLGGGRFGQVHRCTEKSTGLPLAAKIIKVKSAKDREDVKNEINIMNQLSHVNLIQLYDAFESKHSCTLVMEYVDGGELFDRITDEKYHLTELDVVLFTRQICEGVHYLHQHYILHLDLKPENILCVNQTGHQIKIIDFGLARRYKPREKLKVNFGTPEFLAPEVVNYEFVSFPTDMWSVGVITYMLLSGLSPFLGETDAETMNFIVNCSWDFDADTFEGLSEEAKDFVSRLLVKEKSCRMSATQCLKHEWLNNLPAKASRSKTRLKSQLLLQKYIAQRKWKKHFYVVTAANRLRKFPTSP
# Tyrosine-protein kinase Blk (Homo sapiens), sequence (P51451 2-505 limits assumed): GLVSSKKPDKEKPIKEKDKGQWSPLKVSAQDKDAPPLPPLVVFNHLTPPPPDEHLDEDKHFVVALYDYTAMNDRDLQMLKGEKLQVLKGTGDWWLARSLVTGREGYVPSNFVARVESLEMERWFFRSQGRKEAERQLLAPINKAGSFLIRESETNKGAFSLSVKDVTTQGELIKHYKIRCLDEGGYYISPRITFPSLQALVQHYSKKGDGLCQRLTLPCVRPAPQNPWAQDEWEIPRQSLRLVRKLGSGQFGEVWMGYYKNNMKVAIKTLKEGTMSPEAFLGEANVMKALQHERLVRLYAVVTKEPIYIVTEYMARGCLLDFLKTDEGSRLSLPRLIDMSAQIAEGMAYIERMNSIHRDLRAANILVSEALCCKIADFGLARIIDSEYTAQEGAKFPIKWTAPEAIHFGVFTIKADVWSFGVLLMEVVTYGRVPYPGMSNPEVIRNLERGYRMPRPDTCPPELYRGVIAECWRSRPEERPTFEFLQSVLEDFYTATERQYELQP
# Leukocyte tyrosine kinase receptor (Homo sapiens), sequence (P29376 whole entry): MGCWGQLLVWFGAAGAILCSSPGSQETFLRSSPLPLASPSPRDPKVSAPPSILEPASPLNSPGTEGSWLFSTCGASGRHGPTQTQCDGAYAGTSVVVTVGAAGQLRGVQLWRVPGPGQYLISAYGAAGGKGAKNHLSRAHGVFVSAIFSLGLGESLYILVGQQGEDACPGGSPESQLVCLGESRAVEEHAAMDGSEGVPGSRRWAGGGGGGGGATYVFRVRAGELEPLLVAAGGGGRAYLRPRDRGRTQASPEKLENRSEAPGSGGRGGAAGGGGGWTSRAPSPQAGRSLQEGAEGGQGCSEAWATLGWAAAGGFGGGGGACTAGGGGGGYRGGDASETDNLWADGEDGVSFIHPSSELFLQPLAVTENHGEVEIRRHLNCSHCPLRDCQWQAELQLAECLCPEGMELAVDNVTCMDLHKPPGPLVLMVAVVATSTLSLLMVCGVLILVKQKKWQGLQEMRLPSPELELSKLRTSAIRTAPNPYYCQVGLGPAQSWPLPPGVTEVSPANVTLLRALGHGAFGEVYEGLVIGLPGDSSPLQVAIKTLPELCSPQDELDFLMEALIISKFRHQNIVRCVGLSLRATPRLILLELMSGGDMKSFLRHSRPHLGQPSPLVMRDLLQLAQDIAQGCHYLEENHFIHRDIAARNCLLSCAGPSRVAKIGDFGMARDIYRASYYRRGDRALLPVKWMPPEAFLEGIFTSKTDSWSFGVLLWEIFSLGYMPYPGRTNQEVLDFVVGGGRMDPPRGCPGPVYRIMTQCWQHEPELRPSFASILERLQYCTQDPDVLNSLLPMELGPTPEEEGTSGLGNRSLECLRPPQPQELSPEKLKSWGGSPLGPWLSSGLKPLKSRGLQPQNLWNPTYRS
# Mitogen-activated protein kinase kinase kinase 20 (Homo sapiens), sequence (Q9NYL2 2-800 limits assumed): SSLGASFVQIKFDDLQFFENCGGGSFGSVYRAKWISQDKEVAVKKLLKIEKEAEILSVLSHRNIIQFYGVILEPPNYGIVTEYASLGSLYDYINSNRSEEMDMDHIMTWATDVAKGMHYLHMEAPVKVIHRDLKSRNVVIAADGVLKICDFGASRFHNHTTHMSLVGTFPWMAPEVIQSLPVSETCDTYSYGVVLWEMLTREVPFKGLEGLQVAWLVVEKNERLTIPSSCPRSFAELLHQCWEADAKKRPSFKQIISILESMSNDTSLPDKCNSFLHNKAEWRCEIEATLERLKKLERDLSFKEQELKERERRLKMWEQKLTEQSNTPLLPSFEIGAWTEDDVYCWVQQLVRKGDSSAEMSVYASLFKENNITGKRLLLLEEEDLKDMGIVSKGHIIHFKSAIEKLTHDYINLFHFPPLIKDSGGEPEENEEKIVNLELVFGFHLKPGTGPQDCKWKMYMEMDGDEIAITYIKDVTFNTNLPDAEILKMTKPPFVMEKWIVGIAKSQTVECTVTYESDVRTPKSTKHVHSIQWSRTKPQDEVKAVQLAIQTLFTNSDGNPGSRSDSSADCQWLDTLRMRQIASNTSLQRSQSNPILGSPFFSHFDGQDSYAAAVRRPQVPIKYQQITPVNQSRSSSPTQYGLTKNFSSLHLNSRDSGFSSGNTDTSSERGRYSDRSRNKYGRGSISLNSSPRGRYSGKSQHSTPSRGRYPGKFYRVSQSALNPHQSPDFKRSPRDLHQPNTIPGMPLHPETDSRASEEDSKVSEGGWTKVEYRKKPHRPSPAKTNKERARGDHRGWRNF
structure (smiles),measurement,setting,value
Cn1nc(C(F)(F)F)cc1-c1cnc(N2CCc3cc(S(=O)(=O)Nc4c(F)cc(Cl)cc4F)cc(N4CCCC4=O)c32)nc1 [TP-020],residual activity,[1],79%
same,residual activity,[2],78%
same,residual activity,[3],100%
same,residual activity,[4],72%
same,residual activity,[5],100%
same,residual activity,[6],87%
same,residual activity,[7],71%
same,residual activity,[8],84%
same,residual activity,[9],100%
same,residual activity,[10],84%
same,residual activity,[11],100%
same,residual activity,[12],92%
same,residual activity,[13],82%
same,residual activity,[14],100%
same,residual activity,[15],87%
same,residual activity,[16],79%
same,residual activity,[17],98%
same,residual activity,[18],100%
same,residual activity,[19],78%
same,residual activity,[20],100%
same,residual activity,[21],83%
same,inhibition,[22],8.54%
same,residual activity,[23],84%
same,residual activity,[24],100%
same,residual activity,[25],100%
same,inhibition,[26],4.51%
same,residual activity,[27],100%
same,residual activity,[28],100%
same,residual activity,[29],94%
same,residual activity,[30],100%
same,residual activity,[31],100%
same,residual activity,[32],100%
same,residual activity,[33],77%
same,residual activity,[34],94%
same,residual activity,[35],100%
same,residual activity,[36],65%
same,residual activity,[37],91%
same,residual activity,[38],95%
same,residual activity,[39],83%
same,residual activity,[40],83%
same,residual activity,[41],86%
same,residual activity,[42],92%
same,residual activity,[43],84%
same,residual activity,[44],100%
same,residual activity,[45],82%
Nc1cnc(N2CCc3cc(S(=O)(=O)Nc4c(F)cc(Cl)cc4F)cc(N4CCCC4=O)c32)nc1,residual activity,[1],99%
same,residual activity,[2],83%
same,residual activity,[3],100%
same,residual activity,[4],100%
same,residual activity,[5],100%
same,residual activity,[6],81%
same,residual activity,[7],100%
same,residual activity,[8],100%
same,residual activity,[9],97%
same,residual activity,[10],88%
same,residual activity,[11],100%
same,residual activity,[12],83%
same,residual activity,[13],100%
same,residual activity,[14],96%
same,residual activity,[15],80%
same,residual activity,[16],100%
same,residual activity,[17],95%
same,residual activity,[18],77%
same,residual activity,[19],100%
same,residual activity,[20],46%
same,residual activity,[21],100%
same,inhibition,[22],-2.82%
same,residual activity,[23],100%
same,residual activity,[24],95%
same,residual activity,[25],100%
same,inhibition,[26],0.94%
same,residual activity,[27],100%
same,residual activity,[28],100%
same,residual activity,[29],78%
same,residual activity,[30],89%
same,residual activity,[31],78%
same,residual activity,[32],71%
same,residual activity,[33],81%
same,residual activity,[34],100%
same,residual activity,[35],85%
same,residual activity,[36],49%
same,residual activity,[37],100%
same,residual activity,[38],86%
same,residual activity,[39],100%
same,residual activity,[40],61%
same,residual activity,[41],98%
same,residual activity,[42],100%
same,residual activity,[43],100%
same,residual activity,[44],100%
same,residual activity,[45],98%
